In the NIST ThermoML archive (doi:10.1021/acs.jced.7b00702):

Conditions: 100 kPa, Liquid; for viscosity: Falling or rolling sphere viscometry; for mass density: Vibrating tube method

CCn1cc[n+](C)c1.[Cl-].[Cl][Al]([Cl])[Cl] [1-ethyl-3-methyl-1H-imidazolium tetrachloroaluminate]
Conditions | mass density [kg/m3] | viscosity [mPa·s]
293.15 K | 1299.32 | 20.62
303.15 K | 1291.13 | 15.69
313.15 K | 1283.05 | 12.31
323.15 K | 1275.03 | 9.952
333.15 K | 1267.1 | 8.214
343.15 K | 1259.22 | 6.927
353.15 K | 1251.41 | 5.945
